In the OligoGym collection:
HELM strings list units from the 5' end as sugar, base in round brackets, then linkage (d deoxyribose, r ribose, m 2'-O-methyl, p phosphodiester). Strings are as the collection lists them, not checked against the first reports. ss, as = sense and antisense strand; [lna] = locked nucleic acid (LNA); [una] = unlocked nucleic acid; [hna] = hexitol nucleic acid; [fl2r] = 2'-fluoro

Conditions: siRNA
Further: test system not given here.

Substance	target mRNA knockdown [%]
RNA1{[fl2r](A)p.r(G)p.[fl2r](C)p.r(C)p.[fl2r](U)p.r(C)p.[fl2r](C)p.r(A)p.[fl2r](A)p.r(A)p.[fl2r](C)p.r(U)p.[fl2r](C)p.r(C)p.[fl2r](U)p.r(A)p.[fl2r](G)p.r(C)p.[fl2r](U)p.r(T)p.r(T)}|RNA2{r(A)p.r(G)p.r(C)p.r(U)p.r(A)p.r(G)p.r(G)p.r(A)p.r(G)p.r(U)p.r(U)p.r(U)p.r(G)p.r(G)p.r(A)p.r(G)p.r(G)p.r(C)p.r(U)p.r(T)p.r(T)}$$$RNA1{StrandType:ss}|RNA2{StrandType:as}$	16
RNA1{m(C)p.r(A)p.r(G)p.m(C)p.r(A)p.r(A)p.r(A)p.m(C)p.m(C)p.r(A)p.m(C)p.r(G)p.r(A)p.m(U)p.m(C)p.r(A)p.r(A)p.m(U)p.r(A)p.r(T)p.r(T)}|RNA2{m(U)p.r(A)p.m(U)p.m(U)p.r(G)p.r(A)p.m(U)p.m(C)p.r(G)p.m(U)p.r(G)p.r(G)p.m(U)p.m(U)p.m(U)p.r(G)p.m(C)p.m(U)p.r(G)p.r(T)p.r(T)}$$$RNA1{StrandType:ss}|RNA2{StrandType:as}$	5
RNA1{m(G)p.r(C)p.m(A)p.m(G)p.m(A)p.m(G)p.m(A)p.m(A)p.r(U)p.r(C)p.r(U)p.m(A)p.r(C)p.r(C)p.r(U)p.r(U)p.r(U)p.r(C)p.r(C)p.r(T)p.r(T)}|RNA2{r(G)p.r(G)p.r(A)p.r(A)p.r(A)p.r(G)p.r(G)p.r(U)p.r(A)p.r(G)p.r(A)p.r(U)p.r(U)p.r(C)p.r(U)p.r(C)p.r(U)p.r(G)p.r(C)p.r(T)p.r(T)}$$$RNA1{StrandType:ss}|RNA2{StrandType:as}$	65
RNA1{r(C)p.r(U)p.r(U)p.r(A)p.r(C)p.r(G)p.r(C)p.r(U)p.r(G)p.r(A)p.r(G)p.r(U)p.r(A)p.r(C)p.r(U)p.r(U)p.r(C)p.r(G)p.r(A)p.r(T)p.r(T)}|RNA2{r(T)p.r(C)p.r(G)p.[lna](A)p.r(A)p.r(G)p.r(U)p.r(A)p.r(C)p.r(U)p.r(C)p.r(A)p.r(G)p.r(C)p.r(G)p.r(U)p.r(A)p.r(A)p.r(G)p.[lna](T)p.[lna](T)}$$$RNA1{StrandType:ss}|RNA2{StrandType:as}$	91
RNA1{r(U)p.r(C)p.r(C)p.r(U)p.r(C)p.r(G)p.r(U)p.r(C)p.r(G)p.r(U)p.r(C)p.r(U)p.r(G)p.r(U)p.r(U)p.r(C)p.[fl2r](U)p.r(A)p.r(A)p.r(T)p.r(T)}|RNA2{r(U)p.[fl2r](U)p.r(A)p.r(G)p.r(A)p.r(A)p.[fl2r](C)p.r(A)p.r(G)p.r(A)p.r(C)p.r(G)p.r(A)p.r(C)p.r(G)p.r(A)p.r(G)p.r(G)p.r(A)p.r(T)p.r(T)}$$$RNA1{StrandType:ss}|RNA2{StrandType:as}$	74
RNA1{r(G)p.[hna](A)p.r(C)p.r(G)p.r(U)p.r(A)p.r(A)p.[hna](A)p.r(C)p.r(G)p.r(G)p.r(C)p.r(C)p.[hna](A)p.r(C)p.r(A)p.[hna](A)p.r(G)p.r(U)p.r(U)p.r(C)}|RNA2{r(A)p.r(C)p.r(U)p.r(U)p.r(G)p.r(U)p.r(G)p.r(G)p.r(C)p.r(C)p.r(G)p.r(U)p.r(U)p.r(U)p.r(A)p.r(C)p.r(G)p.r(U)p.r(C)p.r(G)p.r(C)}$$$RNA1{StrandType:ss}|RNA2{StrandType:as}$	84.9
RNA1{m(G)p.r(A)p.m(A)p.r(G)p.m(A)p.r(G)p.m(C)p.r(C)p.m(U)p.r(A)p.m(C)p.r(A)p.m(C)p.r(A)p.m(A)p.r(C)p.m(C)p.r(C)p.m(U)p.r(T)p.r(T)}|RNA2{r(A)p.r(G)p.r(G)p.r(G)p.r(U)p.r(U)p.r(G)p.r(U)p.m(G)p.r(U)p.m(A)p.r(G)p.m(G)p.r(C)p.m(U)p.r(C)p.m(U)p.r(U)p.m(C)p.r(T)p.r(T)}$$$RNA1{StrandType:ss}|RNA2{StrandType:as}$	50
RNA1{r(G)p.r(G)p.r(A)p.r(C)p.r(A)p.r(U)p.r(U)p.r(C)p.r(A)p.r(G)p.r(A)p.r(A)p.r(C)p.r(A)p.r(A)p.r(G)p.r(A)p.r(A)p.r(A)p.[una](U)p.[una](U)}|RNA2{r(U)p.r(U)p.r(U)p.r(C)p.[una](U)p.r(U)p.r(G)p.r(U)p.r(U)p.r(C)p.r(U)p.r(G)p.r(A)p.r(A)p.r(U)p.r(G)p.r(U)p.r(C)p.r(C)p.[una](U)p.[una](U)}$$$RNA1{StrandType:ss}|RNA2{StrandType:as}$	37
RNA1{r(A)p.r(U)p.r(C)p.r(G)p.r(A)p.r(C)p.r(C)p.[fl2r](U)p.r(G)p.r(A)p.r(A)p.r(G)p.r(G)p.r(A)p.r(G)p.[fl2r](U)p.r(A)p.r(C)p.r(G)p.r(T)p.r(T)}|RNA2{r(C)p.r(G)p.[fl2r](U)p.r(A)p.r(C)p.r(U)p.r(C)p.r(C)p.r(U)p.r(U)p.[fl2r](C)p.r(A)p.r(G)p.r(G)p.r(U)p.r(C)p.r(G)p.r(A)p.r(U)p.r(T)p.r(T)}$$$RNA1{StrandType:ss}|RNA2{StrandType:as}$	46
RNA1{r(G)p.r(A)p.r(C)p.r(G)p.r(U)p.r(A)p.r(A)p.r(A)p.r(C)p.r(G)p.r(G)p.r(C)p.r(C)p.r(A)p.r(C)p.r(A)p.r(A)p.r(G)p.r(U)p.[lna](T)p.[lna](C)}|RNA2{r(A)p.r(C)p.r(U)p.r(U)p.r(G)p.r(U)p.r(G)p.r(G)p.r(C)p.r(C)p.r(G)p.r(U)p.r(U)p.r(U)p.r(A)p.r(C)p.r(G)p.r(U)p.[lna](C)p.[lna](G)p.r(C)}$$$RNA1{StrandType:ss}|RNA2{StrandType:as}$	86.7
RNA1{r(U)p.r(C)p.r(C)p.r(G)p.r(G)p.r(C)p.[fl2r](U)p.r(A)p.r(A)p.r(C)p.r(U)p.r(C)p.[fl2r](U)p.r(G)p.r(A)p.r(G)p.r(G)p.r(A)p.r(C)p.r(T)p.r(T)}|RNA2{r(G)p.r(U)p.r(C)p.r(C)p.r(U)p.[fl2r](C)p.r(A)p.r(G)p.r(A)p.r(G)p.r(U)p.r(U)p.r(A)p.r(G)p.r(C)p.r(C)p.[fl2r](G)p.r(G)p.r(A)p.r(T)p.r(T)}$$$RNA1{StrandType:ss}|RNA2{StrandType:as}$	85
RNA1{r(G)p.r(A)p.r(A)p.r(G)p.r(A)p.r(G)p.r(U)p.m(U)p.r(A)p.r(A)p.r(C)p.r(C)p.r(C)p.m(G)p.r(G)p.r(G)p.m(A)p.r(C)p.r(U)p.r(T)p.r(T)}|RNA2{r(A)p.r(G)p.r(U)p.r(C)p.r(C)p.r(C)p.r(G)p.r(G)p.r(G)p.r(U)p.m(U)p.r(A)p.r(A)p.r(C)p.r(U)p.r(C)p.r(U)p.r(U)p.r(C)p.r(T)p.r(T)}$$$RNA1{StrandType:ss}|RNA2{StrandType:as}$	47
RNA1{r(A)p.r(U)p.m(A)p.r(C)p.r(U)p.r(U)p.r(G)p.r(G)p.r(C)p.r(G)p.r(G)p.r(G)p.r(C)p.r(U)p.r(C)p.r(U)p.r(U)p.r(U)p.r(C)p.r(T)p.r(T)}|RNA2{r(G)p.r(A)p.r(A)p.r(A)p.r(G)p.r(A)p.r(G)p.r(C)p.r(C)p.r(C)p.r(G)p.r(C)p.m(C)p.r(A)p.r(A)p.r(G)p.r(U)p.r(A)p.r(U)p.r(T)p.r(T)}$$$RNA1{StrandType:ss}|RNA2{StrandType:as}$	72
RNA1{r(G)p.r(U)p.r(A)p.r(U)p.r(G)p.r(A)p.r(C)p.r(C)p.r(G)p.r(A)p.r(C)p.r(U)p.r(A)p.r(C)p.r(G)p.r(C)p.r(G)p.r(U)p.r(A)p.r(T)p.r(T)}|RNA2{r(U)p.r(U)p.r(C)p.r(A)p.r(G)p.r(U)p.r(G)p.r(U)p.r(G)p.r(A)p.r(U)p.r(G)p.r(A)p.r(C)p.r(A)p.[una](C)p.r(U)p.r(U)p.r(G)p.r(T)p.r(T)}$$$RNA1{StrandType:ss}|RNA2{StrandType:as}$	29
RNA1{r(G)p.r(A)p.r(C)p.r(G)p.r(U)p.r(A)p.r(A)p.r(A)p.r(C)p.r(G)p.r(G)p.r(C)p.r(C)p.r(A)p.r(C)p.r(A)p.r(A)p.r(G)p.[hna](U)p.[hna](U)p.r(C)}|RNA2{r(A)p.r(C)p.r(U)p.r(U)p.r(G)p.r(U)p.r(G)p.r(G)p.r(C)p.r(C)p.r(G)p.r(U)p.r(U)p.r(U)p.r(A)p.r(C)p.r(G)p.r(U)p.[lna](C)p.[lna](G)p.r(C)}$$$RNA1{StrandType:ss}|RNA2{StrandType:as}$	83.8
RNA1{r(G)p.m(C)p.r(A)p.r(G)p.r(C)p.r(A)p.r(C)p.r(G)p.r(A)p.r(C)p.r(U)p.r(U)p.r(C)p.r(U)p.r(U)p.r(C)p.r(A)p.r(A)p.r(G)p.r(U)p.r(U)}|RNA2{r(C)p.m(U)p.r(U)p.r(G)p.r(A)p.r(A)p.r(G)p.r(A)p.r(A)p.r(G)p.r(U)p.r(C)p.r(G)p.r(U)p.r(G)p.r(C)p.r(U)p.r(G)p.r(C)p.r(U)p.r(U)}$$$RNA1{StrandType:ss}|RNA2{StrandType:as}$	62.7
RNA1{r(G)p.r(A)p.r(C)p.r(G)p.r(U)p.r(A)p.r(A)p.r(A)p.r(C)p.r(G)p.r(G)p.r(C)p.r(C)p.r(A)p.r(C)p.r(A)p.r(A)p.r(G)p.[hna](U)p.[hna](U)p.r(C)}|RNA2{r(A)p.r(C)p.r(U)p.r(U)p.r(G)p.r(U)p.r(G)p.r(G)p.r(C)p.r(C)p.r(G)p.r(U)p.r(U)p.r(U)p.r(A)p.r(C)p.r(G)p.r(U)p.r(C)p.r(G)p.r(C)}$$$RNA1{StrandType:ss}|RNA2{StrandType:as}$	88.7
RNA1{r(A)p.r(G)p.r(A)p.r(A)p.r(G)p.r(G)p.r(A)p.m(C)p.m(U)p.r(A)p.m(C)p.m(U)p.r(A)p.r(A)p.m(C)p.m(C)p.m(U)p.m(C)p.m(C)p.r(T)p.r(T)}|RNA2{r(G)p.r(G)p.r(A)p.r(G)p.r(G)p.r(U)p.r(U)p.r(A)p.r(G)p.r(U)p.r(A)p.r(G)p.r(U)p.r(C)p.r(C)p.r(U)p.r(U)p.r(C)p.r(U)p.r(T)p.r(T)}$$$RNA1{StrandType:ss}|RNA2{StrandType:as}$	80
RNA1{r(G)p.r(A)p.r(C)p.r(G)p.[hna](U)p.r(A)p.r(A)p.[hna](A)p.r(C)p.r(G)p.[hna](G)p.r(C)p.r(C)p.[hna](A)p.r(C)p.r(A)p.r(A)p.r(G)p.[hna](U)p.[hna](U)p.d(T)}|RNA2{[fl2r](A)p.m(C)p.[fl2r](U)p.m(U)p.[fl2r](G)p.m(U)p.[fl2r](G)p.m(G)p.[fl2r](C)p.m(C)p.[fl2r](G)p.m(U)p.[fl2r](U)p.m(U)p.[fl2r](A)p.m(C)p.[fl2r](G)p.m(U)p.[fl2r](C)p.m(G)p.[fl2r](C)}$$$RNA1{StrandType:ss}|RNA2{StrandType:as}$	23.3
RNA1{r(C)p.r(U)p.r(U)p.r(A)p.r(C)p.r(G)p.r(C)p.r(U)p.r(G)p.r(A)p.r(G)p.r(U)p.r(A)p.r(C)p.r(U)p.r(U)p.r(C)p.r(G)p.r(A)p.r(T)p.r(T)}|RNA2{r(T)p.r(C)p.r(G)p.r(A)p.r(A)p.r(G)p.r(U)p.r(A)p.r(C)p.r(U)p.r(C)p.r(A)p.r(G)p.r(C)p.r(G)p.r(U)p.[lna](A)p.r(A)p.r(G)p.[lna](T)p.[lna](T)}$$$RNA1{StrandType:ss}|RNA2{StrandType:as}$	96
